Values of other authors as cited in paper PMC11575912 (Journal of Clinical Oncology, 2024).

Key:
[1] = system: p110α over the β, δ, and γ isoforms; details: biochemical assays
CYP = details: in vitro or in the human mass balance study; ref unpublished data on file
[2] = once daily

## C[C@H](Nc1ccc2c(c1)OCCn1cc(N3C(=O)OC[C@H]3C(F)F)nc1-2)C(N)=O [inavolisib]
[1]
  Selectivity for p110α over the β, δ, and γ isoforms: > 300 fold
CYP
  CYP-mediated metabolism: did not undergo extensive CYP-mediated metabolism
[2]
  Single-agent maximum tolerable dose: 9 mg
